According to patent EP1285659A1, “Use of clarithromycin compositions in the manufacture of a medicament for the treatment of arthritis deformans” (Fondazione Salvatore Maugeri, priority 2001, dated 2003):
Read-outs that look alike come from different tables or passages of the source.

Assay type: in vivo, patients
Text: The clinical experimentation has been carried out on 18 patients of which 14 females and 4 males, having an average age equal to 62 years selected by the inclusion and exclusion criteria as hereinafter reported. The patients submitted to the clinical experimentation suffered from arthritis deformans diagnosed according to the ARA International Criteria since at least two years, belonging to the 2th and 3rd functional classes according to Steinbrocker. The disease was clinically active notwithstanding the use of drugs known as Disease-Modifying AntiRheumatic Drugs ([…]) able to modify the course of the illness such as for example methotrexate azathioprine, chloroquine, hydroxychloroquine and ciclosporin and notwithstanding the use of steroid and not steroid anti-inflammatory drugs. The patients suffering from arthritis deformans of 4th functional class according to Steinbrocker have been excluded from the experimentation that is the patients invalid with permanent injuries, the patients with associated serious systemic diseases, relevant psychiatric and neuropathic diseases, the drug addicts, the patients suffering from hypersensitivity to the macrolides and the patients under treatment with carbamazepine, ciclosporin and antihistamines. The clarithromycin administration started after the suspension of the Disease-Modifying AntiRheumatic Drugs since one month. In six patients who were assuming a steroid anti-inflammatory drug since at least two weeks, the administration of the same steroid drug with a 6 mg dose of prednisonic equivalent has been associated to the administration of clarithromycin. The administration of clarithromycin was 500 mg twice a day for 8-14 days and subsequently a customized dosage from 500 to 2,000 mg per day in one or two administrations has been applied. The control of the patients has been periodically carried out on 0, 10, 30, 60, 90 and 180 days by medical examination and determination of the haematochemical and functional indexes. In particular the following indexes have been controlled: • HAQ (Health Assessment Questionnaire, 1986), internationally validated as reference functional index in the rheumatic disease; • VAS (Visuanalogic Ache Scale according to Scott Huskisson); • ESR (Erythro Sedimentation Rate).

[1] = Day 180, clarithromycin 500 mg twice a day for 8-14 days, then 500 to 2,000 mg per day, p < 0.05 (Mann-Whitney U test)

## CC[C@H]1OC(=O)[C@H](C)[C@@H](O[C@H]2C[C@@](C)(OC)[C@@H](O)[C@H](C)O2)[C@H](C)[C@@H](O[C@@H]2O[C@H](C)C[C@H](N(C)C)[C@H]2O)[C@](C)(OC)C[C@@H](C)C(=O)[C@H](C)[C@@H](O)[C@]1(C)O [clarithromycin]
Day 0 (baseline, before clarithromycin), 18 patients, Erythro Sedimentation Rate
  ESR: 44.8 ± 8.4
Day 0 (baseline, before clarithromycin), 18 patients, Health Assessment Questionnaire
  HAQ: 20.2 ± 2.6
Day 0 (baseline, before clarithromycin), 18 patients, Visuanalogic Ache Scale according to Scott Huskisson
  VAS: 4.7 ± 0.51
Day 180, clarithromycin 500 mg twice a day for 8-14 days, then 500 to 2,000 mg per day, p < 0.0001 (Mann-Whitney U test)
  HAQ: 5.5 ± 0.51 (a)
[1]
  ESR: 27 ± 5.8 (c)
  VAS: 1.32 ± 0.44 (b)
human, in vivo
  side effect ascribable to the drug: No significant side effect
Number of patients out of 18
  patients not responding: 4
  patients responding to the therapy: 14
Starting from the second week of treatment
  reduction of the symptomatology: significant reduction of the symptomatology
